The test system of one series is rat GABAA ion channel. The settings on record: preliminary screen; read-out: IC50, competition with [3H]TBOB for binding to rat cerebral cortex; cited from earlier work.
Another series addresses T1, Drosophila RDL (Drosophila melanogaster, UniProt P25123).
T1 construct: expressed in transfected cells; host or cells: Xenopus oocytes (Ecocyte, Austin, TX) microinjected with capped cRNA
T1 sequence (P25123 45-606): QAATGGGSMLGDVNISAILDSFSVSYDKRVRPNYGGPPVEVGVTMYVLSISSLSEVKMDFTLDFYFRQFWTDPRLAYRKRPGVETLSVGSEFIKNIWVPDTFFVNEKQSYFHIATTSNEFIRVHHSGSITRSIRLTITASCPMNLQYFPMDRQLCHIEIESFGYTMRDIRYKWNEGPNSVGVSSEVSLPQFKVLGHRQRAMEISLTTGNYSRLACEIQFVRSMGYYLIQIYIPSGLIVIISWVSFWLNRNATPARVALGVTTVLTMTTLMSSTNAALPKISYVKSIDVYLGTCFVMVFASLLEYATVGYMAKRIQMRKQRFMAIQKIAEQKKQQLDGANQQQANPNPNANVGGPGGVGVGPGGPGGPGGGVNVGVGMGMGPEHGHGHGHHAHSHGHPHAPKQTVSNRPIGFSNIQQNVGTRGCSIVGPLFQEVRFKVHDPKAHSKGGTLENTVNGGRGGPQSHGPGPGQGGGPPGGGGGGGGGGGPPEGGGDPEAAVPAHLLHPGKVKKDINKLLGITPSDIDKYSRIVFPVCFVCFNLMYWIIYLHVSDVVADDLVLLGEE
In words: RDL receptors assay: two-electrode voltage clamp electrophysiology in Xenopus oocytes. The format is cell-based. The procedure: 5. RDL receptors binding assay
The Drosophila RDL sequence (NP_01261616.1) was cloned into the pGH19 backbone via Gibson assembly for capped cRNA synthesis using the T7 mMessage mMachine kit (Invitrogen). cRNA samples were stored at - 80 °C until use. Ready to inject Xenopus oocytes were obtained from Ecocyte (Austin, TX) and microinjected using a Nanoinject III (Drummond Scientific) with 4 nL of cRNA (1 μg/μL). The oocytes were then incubated at 16 °C in ND96 storage solution (93.5 mM NaCl, 2 mM KCl, 1.8 mM CaCl 2·2H2O, 2 mM MgCl 2·6H2O, 5 mM HEPES at pH 7.5). Recording were made 1 -6 days post injection.
Electrophysiology experiments were performed using an automated two -electrode voltage clamp set -up (Roboocyte 2, Mutlichannel Systems). Recording head were filled with 3M KCl and gave resistan ce of 100-2000 kΩ in medium. Membrane potential was held at -60 mV and current signal was sampled at 20 kHz.
Experiments were performed at room temperature using Modified Barth’s Saline (MBS) (88 mM NaCl, 1 mM KCl, 2.4 mM NaHCO 3, 15 mM HEPES, 0.3 mM Ca(NO3)2, 0.41 mM CaCl 2, and 0.82 mM MgSO 4·7H2O at pH 7.4). Oocytes were perfused with MBS at 5 mL/min in all assays. GABA and all compounds were dissolved in MBS and a 0.1% DMSO negative control was utilized to correct for any solvent effect.
Initial block potential of each compound was assessed utilizing a pre -incubation method (MBS (30 sec), 10 μM GABA (15 sec), MBS wash (60 sec), compound (60 sec), compound + 10 μM GABA (15 sec), compound (60 sec), compound + 10 μM GABA (15 sec), MBS wash (60 sec) with 10 μM of each test compound. The maximum signal of the second co -application was compared to the initial GABA response to determine the % block and then standardized against the corresponding value of the 0.1% DMSO control. Dose responses were performed for any compound showing >50% block in the initial test using 10, 1, and 0.1 μM. The IC50 values were fit using an inhibitor vs response 4 -parameter fit (GraphPad Prism 8.1.2).
Supplementary Table 9. IC50 values of test compound
Compound IC50 (µM) Compound IC50 (µΜ)
(Two-electrode voltage clamp holds a large cell at a set potential and records current.)

The conditions of series [1]: reversible solvolysis; cited from earlier work.

`C=C(C)C1C2OC(=O)C1(C)C1(O)CC3OC34C(=O)OC2C41C` (stereo not shown) [5MePXN, 5-methylpicrotoxinin]: the IC50 in the series with rat GABAA ion channel was 2100 ± 300 nM; against Drosophila RDL, 1710 nM.

Consider `C=C(C)[C@@H]1[C@H]2OC(=O)[C@@H]1[C@]1(O)C[C@H]3O[C@]34C(=O)O[C@H]2[C@]14C` [PXN, picrotoxinin], for which, in series [1], the “half-life in mouse plasma” value was ~ 1 h. Also, at Drosophila RDL, the 50% inhibitory concentration (IC50) came out at 800 nM.

As a reminder, the IC50 is the point on the concentration scale where inhibition reaches its midpoint.
